The values below come from ChEMBL document CHEMBL1151178, “Staminane- and isopimarane-type diterpenes from Orthosiphon stamineus of Taiwan and their nitric oxide inhibitory activity” (J Nat Prod, 2004).

The test system of this assay is J774.1. In words: Inhibition of LPS-induced NO production in mouse J774.1cells after 24 hrs. Type of assay: functional, cell-based. The settings on record: J774.1, 24 h.
One may read the IC50 as the concentration that gives 50% inhibition. Read a low IC50 as inhibition by little substance. In the case of `CNC(=N)NCCC[C@H](N)C(=O)O` [TILARGININE], the IC50 was 35.7 µM.

`C=C[C@@]1(C)CC(=O)[C@H]2[C@](O)(C1=O)[C@H](OC(C)=O)C[C@H]1C(C)(C)[C@H](O)[C@H](OC(=O)c3ccccc3)[C@H](O)[C@@]12C` [ORTHOSIPHONONE C]: the IC50 amounted to 81.8 µM.

In turn, `C=C[C@@]1(C)CC(=O)[C@H]2[C@](O)(C1=O)[C@H](OC(C)=O)C[C@H]1C(C)(C)[C@H](OC(=O)c3ccccc3)[C@H](O)[C@H](OC(=O)c3ccccc3)[C@@]12C` [ORTHOSIPHONONE D] gave an IC50 of 35 µM.

Turning to `C=C[C@@]1(C)C[C@@H](O)[C@@H]2[C@@]3(C)C=C(OC(C)=O)C(=O)C(C)(C)[C@@H]3C[C@@H](OC(C)=O)[C@@]2(O)[C@H]1OC(C)=O`, inhibition was half-maximal at 119 µM (IC50).

The compound `C=C[C@H]1[C@@H](OC(=O)c2ccccc2)[C@@H]2[C@@]3(C)C=C(OC(C)=O)C(=O)C(C)(C)[C@@H]3C[C@@H](OC(C)=O)[C@@]2(O)C(=O)[C@@]1(C)O` [STAMINOL D] returned an IC50 of 92 µM.

On to `C=C[C@H]1[C@@H](OC(=O)c2ccccc2)[C@H]2[C@](O)(C(=O)[C@@]1(C)O)[C@H](OC(C)=O)C[C@H]1C(C)(C)[C@H](OC(=O)c3ccccc3)[C@H](O)[C@H](OC(C)=O)[C@@]12C` [STAMINOL C], for which it took 61.1 µM to reach half-maximal inhibition (IC50).
